In patent publication US4521422A, “Aryl and heteroaryl[7-(aryl and heteroaryl)pyrazolo[1,5-a]pyrimidin-3-yl]methanones” (American Cyanamid Company, priority 1984, dated 1985):

Assays:
[1] = system: Ethanol Induced Narcosis in Rats; experiment: Effects on the duration of ethanol induced narcosis in rats; format: in vivo; settings: Rattus norvegicus; lowest dose causing significant (p≤0.05) increase in duration of narcosis; oral, 60 min before 3.2 g/kg i.p. ethanol; read-out: MED
Experimental: The sedative-hypnotic properties of the novel compounds of the instant invention have been established by their effect on the duration of ethanol induced narcosis in rats as a measurement of sedation. Groups of at least 8 rats were administered graded oral doses of the test compounds or vehicle 60 minutes prior to intraperitoneal treatment with 3.2 g/kg ethanol. Rats were then observed continuously for 180 minutes for the incidence and duration of ethanol induced narcosis. […] The duration of narcosis was the total time the rat remained in a supine position. The MED [lowest dose necessary to cause a significant (p≤0.05, two-tailed Student's t test) increase in the duration of ethanol induced narcosis in rats] of representative compounds of this invention are shown in Table IV. Test compounds were dissolved or suspended in a 2% aqueous starch suspension containing 5% polyethyleneglycol 400 and a drop of Tween®80; ethanol (95%) was adjusted to final concentration (V:V) with 0.85% saline. All treatments were administered in a constant volume of 5 ml/kg.

[2] = system: Ability of Rats to Remain on an Inclined Screen; experiment: Effect on ability of rats to remain on an inclined screen; format: in vivo; settings: Rattus norvegicus, 65 min; dose necessary to cause 50% of animals to fall off; oral; 60° screen, 65 min after dosing
Experimental: The first test measures the effect of representative compounds on the ability of rats to remain on an inclined screen. Groups of at least 6 rats were treated orally with graded doses of test compounds or vehicle and placed on a wire mesh screen (inclined at an angle of 60° from a horizontal level) 65 minutes later. The number of rats falling off the screen within 30 minutes was recorded. The ED50 (dose necessary to cause 50% of the animals tested to fall off) was calculated according to the linear arc-sine transformation method of Finney, D. J. Statistical Methods in Biological Assay, 2nd Ed., Hafner, N. Y., 1964, pp. 454 ff. Compounds were dissolved or suspended in a 2% aqueous starch suspension containing 5% polyethylene glycol 400 and a drop of polysorbate 80, and administered in a constant volume of 5 ml/kg.

[3] = system: Nonconditioned Passive Avoidance in Rats; experiment: Nonconditioned passive avoidance (conflict) test in rats; format: in vivo, rat (Wistar); design: key: Active: considered active if the number of shocks received by the test group is significantly higher than the control group by the Mann-Witney U test; settings: oral or i.p.
Experimental: Another test which has been used to assess anti-anxiety effects is a nonconditioned passive avoidance procedure described by [J. R. Vogel, B. Beer and D. E. Clody, "A Simple and Reliable Conflict Procedure for Testing Anti-Anxiety Agents", Psychopharmacologia, 21, 1-7 (1971)]. A conflict situation is induced in rats by a modification of this method.
Groups of 6 naive, Wistar strain rats, weighing 200-240 g each were deprived of water for 48 hours and food for 24 hours. The test compounds were administered in single or graded, oral or intraperitoneal doses, suspended in a 2% starch vehicle containing 0.5% v/v polyethylene glycol and one drop of polysorbate 80. Control animals received the vehicle alone. At 30 to 60 minutes each rat was placed in an individual plexiglass chamber. Water was available ad libitum from a tap located in the rear of the chamber. A 0.7 milliampere DC shocking current was established between the stainless steel grid floor and the tap. After 20 licks of non-shocked drinking, a shock was delivered for 2 seconds and then further shocks were delivered on a ratio of one shock for 2 seconds for every 20 licks. This was continued for a total of 3 minutes. The number of shocks taken by each rat during the 3 minute interval was recorded and compared to a control group. […]

[4] = system: Clonic Seizures Caused by Pentylenetetrazole in Rats; experiment: Protection against clonic seizures caused by pentylenetetrazole in rats; format: in vivo; settings: Rattus norvegicus; dose 25.0 mg/kg, oral or i.p.; pentylenetetrazole 23 mg/kg i.v. at 30 or 60 min; read-out: % of Rats Protected
Outline: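 Rats (at least 4 per group) given single or graded oral or intraperitoneal doses in starch/PEG/Polysorbate 80 vehicle. After 30 or 60 min, pentylenetetrazole 23 mg/kg i.v. was given, a dose expected to induce clonic seizures in 99% of unprotected rats. Protection from convulsions was scored.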

[5] = system: Brain-Specific Receptors of Rats; experiment: Inhibition of the binding of 3H-benzodiazepine to brain-specific receptors of rats; design: species or system rat (Wistar); settings: 3H-diazepam 1.5 nM or 3H-flunitrazepam 1.0 nM; rat cortex P2 fraction; test concentration not given
[6] = system: Locomotor Activity in Rats; experiment: Effects on locomotor activity in rats; format: in vivo; settings: Rattus norvegicus, 1 h; dose causing 50% decrease in mean activity counts vs vehicle; oral, 60 min; read-out: MDD50
Experimental: Groups of 6 rats were treated orally with vehicle (5 ml/kg) or graded doses of the test compounds. Sixty minutes later, individual rats were placed in Actophotometers and locomotor activity was measured for 5 minutes after a brief (30 sec.) habituation period. Motor Activity Counts (number of crossings of the photo cells) were recorded for each rat, and mean activity counts were calculated for each treatment group. The dose causing a 50% decrease in mean activity counts compared with the vehicle group (MDD50) was calculated from a linear regression equation.

Structure (SMILES)	minimal effective dose [1] [mg/kg]	ED50 [2] [mg/kg]	Result (nonconditioned passive avoidance) ([3]; dose 25.0 mg/kg)	responders at 25 mg/kg [4] [%]	% Inhibition [5] [%]	ED50 [6] [mg/kg]	Result (nonconditioned passive avoidance) ([3]; dose 12.5 mg/kg)
O=C(c1ccco1)c1cnn2c(-c3cccnc3)ccnc12 [2-Furanyl[7-(3-pyridinyl)pyrazolo[1,5-a]pyrimidin-3-yl]methanone]	32	167	Active	100	72	500	–
O=C(c1ccco1)c1cnn2c(-c3cccc(C(F)(F)F)c3)ccnc12 [2-furanyl[7-[3-(trifluoromethyl)phenyl]pyrazolo[1,5-a]pyrimidin-3-yl]methanone]	32	–	Active	100	98	–	–
O=C(c1ccccn1)c1cnn2c(-c3ccncc3)ccnc12 [2-pyridinyl[7-(4-pyridinyl)pyrazolo[1,5-a]pyrimidin-3-yl]methanone]	–	–	Active	100	29	101	–
O=C(c1ccccn1)c1cnn2c(-c3cccc(C(F)(F)F)c3)ccnc12 [2-pyridinyl[7-[3-(trifluoromethyl)phenyl]pyrazolo[1,5-a]pyrimidin-3-yl]methanone]	–	6.9	Active	100	93	7	–
O=C(c1ccccc1Cl)c1cnn2c(-c3cccnc3)ccnc12 [(2-chlorophenyl)[7-(3-pyridinyl)pyrazolo[1,5-a]pyrimidin-3-yl]methanone]	4	–	Active	100	24	–	–
O=C(c1ccc(F)cc1)c1cnn2c(-c3ccncc3)ccnc12 [(4-Fluorophenyl)[7-(4-pyridinyl)pyrazolo[1,5-a]pyrimidin-3-yl]methanone]	6	98	Active	100	–	48.9	–
COc1ccc(C(=O)c2cnn3c(-c4cccnc4)ccnc23)cc1 [(4-Methoxyphenyl)[7-(3-pyridinyl)pyrazolo[1,5-a]pyrimidin-3-yl]methanone]	–	11.9	–	100	–	10.5	Active
Cc1ccc(C(=O)c2cnn3c(-c4cccnc4)ccnc23)cc1 [(4-Methylphenyl)[7-(3-pyridinyl)pyrazolo[1,5-a]pyrimidin-3-yl]methanone]	–	11.1	Active	100	56	13.2	–
O=C(c1ccccc1)c1cnn2c(-c3cccnc3)ccnc12 [Phenyl[7-(3-pyridinyl)pyrazolo[1,5-a]pyrimidin-3-yl]methanone]	16	68.5	Active	100	45	51.4	–
O=C(c1ccccc1)c1cnn2c(-c3cc[n+]([O-])cc3)ccnc12 [Phenyl[7-(4-pyridinyl)pyrazolo[1,5-a]pyrimidin-3-yl]methanone, pyridine-1-oxide]	–	–	Active	100	39	–	–
Cc1cnc2c(C(=O)c3ccccc3)cnn2c1-c1ccncc1 [[6-methyl-7-(4-pyridinyl)pyrazolo[1,5-a]pyrimidin-3-yl]phenyl-methanone]	–	–	Active	100	56	–	–
O=C(c1ccccn1)c1cnn2c(-c3ccc(F)cc3)ccnc12 [[7-(4-fluorophenyl)pyrazolo[1,5-a]pyrimidin-3-yl]-2-pyridinyl-methanone]	–	–	Active	50	64	–	–
O=C(c1ccccc1)c1cnn2c(-c3ccc(F)cc3)ccnc12 [[7-(4-fluorophenyl)pyrazolo[1,5-a]pyrimidin-3-yl]phenyl-methanone]	–	–	Active	100	18	–	–
O=C(c1ccccc1)c1cnn2c(-c3ccncc3)ccnc12 [phenyl[7-(4-pyridinyl)pyrazolo[1,5-a]pyrimidin-3-yl]methanone]	8	9.9	Active	100	–	21.2	–
O=C(c1ccccc1)c1cnn2c(-c3cccc(C(F)(F)F)c3)ccnc12 [phenyl[7-[3-(trifluoromethyl)phenyl]pyrazolo[1,5-a]pyrimidin-3-yl]methanone]	–	5.5	Active	100	93	5.5	–
